{"source": "paper PMC6491832", "about": "“Methylobacterium extorquens RSH Enzyme Synthesizes (p)ppGpp and pppApp in vitro and in vivo, and Leads to Discovery of pppApp Synthesis in Escherichia coli” (Frontiers in Microbiology, 2019)", "molecules": {"B1": {"name": "RSHMex1-352 (Methylorubrum extorquens AM1) (protein)", "chain": "MMRQYELVERVKRYNPAANEALLNRAYVYAMRAHGTQKRASGDPFFAHPLEVAAILTDLRLDDATIVAAVLHDTVEDTAATLDEIREIFGPEIGALVDGLTKLKRLDLVSKRAVQGENFRKLLLAVAEDVRVLLVKLADRLHNMRTLHFMRDDKRARIAEETLDIYAPLAGRMGMQELRDELEDLSFRTLKPEVYATITKRLEDLSAKSGSVIESIEHDLTARLAARGIAAHVKGRLKKPFSIWSKMERKSVAFEQLSDIVGFRVIVGTLAECYAALGVVHTSWPMVPGRYKDYVSTPKQNDYRSIHTTVIGPKRQRVELQIRTAEMDEIAEYGIAAHAHYKEAGKEGVEGE", "notes": "N-terminal catalytic half (hydrolase + synthetase domains, residues 1-352), CTD regulatory domain omitted; His8-SUMO tag removed by Ulp1; expressed in E. coli BL21(DE3) Rosetta"}}, "key": {"[1]": {"biological_target": "T1, RelSeq1-385 (Streptococcus dysgalactiae, UniProt Q54089)", "T1 construct": "gene relA; N-terminal catalytic half, residues 1-385; His8-SUMO tag removed by Ulp1; expressed in E. coli BL21(DE3) Rosetta", "T1 sequence (Q54089 1-385)": "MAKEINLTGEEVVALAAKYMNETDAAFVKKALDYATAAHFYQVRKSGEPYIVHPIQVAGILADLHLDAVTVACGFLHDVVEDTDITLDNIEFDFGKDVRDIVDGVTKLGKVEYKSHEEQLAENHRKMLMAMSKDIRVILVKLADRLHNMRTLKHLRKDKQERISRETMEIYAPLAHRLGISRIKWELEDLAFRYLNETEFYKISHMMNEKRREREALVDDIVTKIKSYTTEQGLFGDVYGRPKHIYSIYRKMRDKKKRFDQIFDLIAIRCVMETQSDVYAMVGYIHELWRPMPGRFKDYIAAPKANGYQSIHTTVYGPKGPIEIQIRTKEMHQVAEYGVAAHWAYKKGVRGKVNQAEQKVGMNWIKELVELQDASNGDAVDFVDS", "type": "biochemical", "details": "8 mM ATP, 8 mM GTP, 16 mM MgCl2, 50 mM Tris-HCl pH 8.9, 37 °C, control reaction"}, "[2]": {"substrate": "Nc1ncnc2c1ncn2[C@@H]1O[C@H](COP(=O)(O)OP(=O)(O)OP(=O)(O)O)[C@@H](O)[C@H]1O", "test": "purified protein", "type": "biochemical, Methylorubrum extorquens", "details": "8 mM GTP, ATP 0.25-2 mM, 8 mM CoCl2, 50 mM Tris-HCl pH 8.9, 37 °C, 2 h, 80 nM enzyme, pyrophosphate donor"}, "[3]": {"substrate": "Nc1nc2c(ncn2[C@@H]2O[C@H](COP(=O)(O)OP(=O)(O)OP(=O)(O)O)[C@@H](O)[C@H]2O)c(=O)[nH]1", "test": "purified protein", "type": "biochemical, Methylorubrum extorquens", "details": "8 mM ATP, GTP 1-8 mM, 8 mM CoCl2, 50 mM Tris-HCl pH 8.9, 37 °C, 2 h, 80 nM enzyme, pyrophosphate acceptor"}}, "note": "Read-outs that look alike come from different tables or passages of the source.", "data": [{"molecule": "Nc1ncnc2c1ncn2[C@@H]1O[C@H](COP(=O)(O)OP(=O)(O)OP(=O)(O)O)[C@@H](O)[C@H]1O", "note": "[ATP]", "values": [{"measurement": "pppGpp synthesis from [33P]gamma-ATP, two-dimensional TLC", "setting": "[1]; pyrophosphate donor", "value": "ATP + GTP with RelSeq1-385 (to visualize pppGpp)"}]}, {"molecule": "Nc1nc2c(ncn2[C@@H]2O[C@H](COP(=O)(O)OP(=O)(O)OP(=O)(O)O)[C@@H](O)[C@H]2O)c(=O)[nH]1", "note": "[GTP]", "values": [{"measurement": "pppGpp synthesis from [33P]gamma-ATP, two-dimensional TLC", "setting": "[1]; pyrophosphate acceptor", "value": "ATP + GTP with RelSeq1-385 (to visualize pppGpp)"}]}, {"molecule": "B1", "values": [{"measurement": "Km", "setting": "[2]", "value": "390 ± 10", "unit": "µM"}, {"measurement": "Km", "setting": "[3]", "value": "3000 ± 290", "unit": "µM"}]}]}
